From PMC10322725, “Assimilatory sulfate reduction in the marine methanogen Methanothermococcus thermolithotrophicus” (Nature Microbiology, 2023)

Legend:
[1] = molecular target: T1, MtPAPP (Methanothermococcus thermolithotrophicus, UniProt A0AA82WPC3); test: X-ray crystallography, […] Å; assay type: binding; details: co-crystallized with 2 mM PAP and MnCl2; partially occupied Mn2+ in active site
T1 construct: recombinant in E. coli, codon-optimized gene in pET-28a(+) NdeI/BamHI, HisTrap, tag cleaved if necessary; DHH domain 1-180, linker 181-210, DHHA1 211-315
T1 sequence (A0AA82WPC3 1-315): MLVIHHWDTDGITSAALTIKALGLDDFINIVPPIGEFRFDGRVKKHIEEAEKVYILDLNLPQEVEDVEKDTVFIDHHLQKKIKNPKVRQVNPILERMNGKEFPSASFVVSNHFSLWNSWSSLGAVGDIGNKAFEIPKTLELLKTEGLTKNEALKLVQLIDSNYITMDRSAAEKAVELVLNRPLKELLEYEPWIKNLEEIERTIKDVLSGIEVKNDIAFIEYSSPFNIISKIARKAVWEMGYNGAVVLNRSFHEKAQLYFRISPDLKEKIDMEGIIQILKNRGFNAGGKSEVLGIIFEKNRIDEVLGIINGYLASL

[2] = molecular target: T2, MtAPSK (Methanothermococcus thermolithotrophicus, UniProt A0AA82WPC2); test: coupled NADH oxidation assay with MtATPS, pyrophosphatase, pyruvate kinase/lactate dehydrogenase; assay type: biochemical; details: APS generated in situ by MtATPS; 2 mM ATP, Mg2+, pH 7.0, 35 °C
T2 construct: gene cysC; recombinant in E. coli, codon-optimized gene in pET-28a(+) NdeI/BamHI, HisTrap, tag cleaved if necessary; homodimer

[3] = molecular target: T3, MtATPS (Methanothermococcus thermolithotrophicus, UniProt A0AA82WPC1); test: coupled NADH oxidation assay with MtAPSK, pyrophosphatase, pyruvate kinase/lactate dehydrogenase; assay type: biochemical; details: 2.5 mM Na2SO4, 2 mM ATP, Mg2+, pH 7.0, 35 °C; pyrophosphatase rate-limiting
T3 construct: gene sat; recombinant in E. coli, codon-optimized gene in pET-28a(+) NdeI/BamHI, HisTrap, tag cleaved if necessary; homodimer; domains 1-156, 164-314, 320-382
T3 sequence (A0AA82WPC1 4-385): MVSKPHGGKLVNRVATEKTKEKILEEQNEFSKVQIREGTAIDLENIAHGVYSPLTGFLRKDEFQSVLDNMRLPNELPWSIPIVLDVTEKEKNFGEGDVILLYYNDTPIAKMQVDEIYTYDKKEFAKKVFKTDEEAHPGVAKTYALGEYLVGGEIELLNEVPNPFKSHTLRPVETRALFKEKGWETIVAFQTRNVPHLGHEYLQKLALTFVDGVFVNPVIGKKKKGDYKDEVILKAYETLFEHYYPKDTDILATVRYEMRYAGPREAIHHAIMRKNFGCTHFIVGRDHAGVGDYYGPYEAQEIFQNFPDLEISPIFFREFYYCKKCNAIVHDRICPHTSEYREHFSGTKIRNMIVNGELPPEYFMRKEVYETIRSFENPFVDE

[4] = molecular target: T4, MtPAPSR (Methanothermococcus thermolithotrophicus, UniProt A0AA82WPC4); test: X-ray crystallography, […] Å; assay type: binding; details: bound in alpha subunit; crystal for phasing co-crystallized with 0.5 mM FAD
T4 construct: alpha and beta co-expressed in E. coli from pET-28a(+) NcoI/BamHI, C-terminal His-tag on alpha, anaerobic purification; alpha2beta2 heterotetramer; with Adenylylsulfate reductase subunit beta (PAPS reductase beta subunit)

[5] = molecular target: T4, MtPAPSR; test: coupled assay, oxidation of reduced methyl viologen at […] nm; assay type: biochemical; details: PAPS generated in situ by MtATPS and MtAPSK, PAP removed by MtPAPP; HEPES pH 7.0, Mn2+, Mg2+, 45 °C, anaerobic
[6] = molecular target: T1, MtPAPP; test: malachite green phosphate assay; assay type: biochemical; details: 40 µM PAP, 50 µM MnCl2, Tris/HCl pH 7.64, 40 °C
[7] = molecular target: APS kinase from Methanothermococcus thermolithotrophicus (MtAPSK) (Methanothermococcus thermolithotrophicus); test: crystal structure; MtAPSK co-crystallized with 2 mM MgCl2, apo state with bound phosphate, sitting drop, 18 °C, aerobic
[8] = molecular target: ATP sulfurylase from Methanothermococcus thermolithotrophicus (MtATPS) (Methanothermococcus thermolithotrophicus); test: SEC; size exclusion chromatography of purified MtATPS; conditions in the supplement

T4 sequence (A0AA82WPC4 entry or part of it): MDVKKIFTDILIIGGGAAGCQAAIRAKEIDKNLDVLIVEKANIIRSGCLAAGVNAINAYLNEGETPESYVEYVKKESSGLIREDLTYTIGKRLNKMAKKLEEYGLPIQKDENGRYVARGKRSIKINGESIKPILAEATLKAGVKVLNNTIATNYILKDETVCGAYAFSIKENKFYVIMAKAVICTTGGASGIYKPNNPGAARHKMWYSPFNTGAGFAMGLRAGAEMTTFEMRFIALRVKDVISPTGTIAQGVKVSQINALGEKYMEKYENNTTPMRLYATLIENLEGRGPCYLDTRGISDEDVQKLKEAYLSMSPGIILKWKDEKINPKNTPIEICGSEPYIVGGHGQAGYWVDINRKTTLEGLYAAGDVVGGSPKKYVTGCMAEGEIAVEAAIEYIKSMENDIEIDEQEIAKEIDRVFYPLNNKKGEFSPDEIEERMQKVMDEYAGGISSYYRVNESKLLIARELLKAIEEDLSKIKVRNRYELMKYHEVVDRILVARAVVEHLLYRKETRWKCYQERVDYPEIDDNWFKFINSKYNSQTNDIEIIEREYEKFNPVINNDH
T4 sequence (A0AA82WPC5 entry or part of it, further chain): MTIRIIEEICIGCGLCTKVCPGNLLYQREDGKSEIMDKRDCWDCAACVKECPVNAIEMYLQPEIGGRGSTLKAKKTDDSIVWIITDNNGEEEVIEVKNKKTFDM
T2 sequence (A0AA82WPC2 entry or part of it): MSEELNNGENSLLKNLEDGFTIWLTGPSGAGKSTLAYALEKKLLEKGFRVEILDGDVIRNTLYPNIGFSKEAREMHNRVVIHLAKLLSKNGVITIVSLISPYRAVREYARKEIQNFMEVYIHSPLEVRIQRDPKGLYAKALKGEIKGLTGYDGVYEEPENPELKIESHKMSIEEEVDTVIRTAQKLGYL

Nc1ncnc2c1ncn2[C@@H]1O[C@H](COP(=O)(O)O)[C@@H](O)[C@H]1O [AMP]
X-ray crystallography, 3.1 Å [1]: contained the product AMP and an ion in its active site

Nc1ncnc2c1ncn2[C@@H]1O[C@H](COP(=O)(O)OP(=O)(O)OP(=O)(O)O)[C@@H](O)[C@H]1O [ATP]
coupled NADH oxidation assay with MtATPS, pyrophosphatase, pyruvate kinase/lacta [2]: determined by the production of ADP which was coupled to NADH oxidation
coupled NADH oxidation assay with MtAPSK, pyrophosphatase, pyruvate kinase/lacta [3]: activity of the recombinantly expressed MtATPS and MtAPSK was tested via a coupled assay

Cc1cc2nc3c(=O)[nH]c(=O)nc-3n(C[C@H](O)[C@H](O)[C@H](O)COP(=O)(O)OP(=O)(O)OC[C@H]3O[C@@H](n4cnc5c(N)ncnc54)[C@H](O)[C@@H]3O)c2cc1C [FAD]
X-ray crystallography, 1.45 Å [4]: the α subunit, containing the flavin adenine dinucleotide (FAD)

Nc1ncnc2c1ncn2[C@@H]1O[C@H](COP(=O)(O)OS(=O)(=O)O)[C@@H](OP(=O)(O)O)[C@H]1O [PAPS]
coupled assay, oxidation of reduced methyl viologen at 600 nm [5]: MtATPS, a pyrophosphatase and the MtAPSK were used to generate PAPS

Nc1ncnc2c1ncn2[C@@H]1O[C@H](COP(=O)(O)O)[C@@H](OP(=O)(O)O)[C@H]1O [PAP]
malachite green phosphate assay [6]: produced inorganic phosphate (Pi) from PAP at fast rates

O=S(=O)(O)O [SO42−]
coupled NADH oxidation assay with MtAPSK, pyrophosphatase, pyruvate kinase/lacta [3]: activity of the recombinantly expressed MtATPS and MtAPSK was tested via a coupled assay

APS kinase from Methanothermococcus thermolithotrophicus (MtAPSK) (enzyme)
stoichiometry N [7]: 2

ATP sulfurylase from Methanothermococcus thermolithotrophicus (MtATPS) (enzyme)
stoichiometry N [8]: 2
